Experimental data taken from the Kinase Knowledgebase extract (Sharma et al. 2016).

Target: CDK2 (UniProt P24941)
Assay: Enzyme Assay
Conditions: concentration not given here

Compound | inhibition [%]
NC(=O)c1cc(Cc2ccccc2)sc1NC(=O)c1c[nH]cn1 | 100
CC(=O)NCCCCCC(=O)Nc1sc(C(C)c2ccccc2)cc1C(N)=O (stereo unspecified) | 100
CC1=C(C(=O)Nc2sc(C(C)c3ccccc3)cc2C(N)=O)Cc2ccccc21 (stereo unspecified) | 100
CCCCC(C)(C)C(=O)Nc1sc(C(C)C)cc1C(N)=O | 100
Cc1sc(NC(=O)c2coc3ccccc3c2=O)c(C(N)=O)c1C | 100
CC(c1ccccc1)c1cc(C(N)=O)c(NC(=O)c2cccc3cccnc23)s1 (stereo unspecified) | 100
Cc1csc(NC(=O)CCc2nc3ccccc3[nH]2)c1C(N)=O | 100
CC(C)c1cc(C(N)=O)c(NC(=O)CCC2CCCC2)s1 | 100
Cc1cccc(C(=O)Nc2sc(-c3ccccc3)cc2C(N)=O)c1O | 100
CC(C)c1cc(C(N)=O)c(NC(=O)C2CCCN2C)s1 (stereo unspecified) | 100
C=CCN(C(C)=O)C(=O)CNc1sc(-c2ccccc2)cc1C(N)=O | 100
CC(C)c1cc(C(N)=O)c(NC(=O)CCC(=O)N(C)C)s1 | 100
NC(=O)c1cc(-c2ccccc2)sc1NC(=O)COc1ccccc1 | 100
COc1ccc(CC(=O)Nc2scc(C)c2C(N)=O)c(OC)c1 | 100
COc1ccccc1C(=O)Nc1sc(-c2ccccc2)cc1C(N)=O | 100
CCC(NC(=O)CCl)C(=O)Nc1sc(C)c(C)c1C(N)=O (stereo unspecified) | 100
CC(=O)NC(C(=O)Nc1scc(C)c1C(N)=O)c1ccccc1 (stereo unspecified) | 100
CC(C)c1cc(C(N)=O)c(NC(=O)Cc2ccsc2)s1 | 100
Cc1cc(C)cc(CC(=O)Nc2sc(Cc3ccccc3)cc2C(N)=O)c1 | 100
NC(=O)c1c(N2C(=O)CCC2C(N)=O)sc2c1CCCC2 (stereo unspecified) | 100
NC(=O)c1cc(-c2ccccc2)sc1NC(=O)Cc1ccccc1F | 100
CC(C)c1cc(C(N)=O)c(NC(=O)c2cccc(C#N)c2)s1 | 100
CN(C)c1cccc(C(=O)Nc2sc(Cc3ccccc3)cc2C(N)=O)c1 | 100

Compound | inhibition [%]
NC(=O)c1cc(-c2ccccc2)sc1NC(=O)c1ccc(Cl)nc1 | 100
CC(c1ccccc1)c1cc(C(N)=O)c(NC(=O)c2cn(C)c3ccccc23)s1 (stereo unspecified) | 100
Cc1cccc(C)c1C(=O)Nc1sc(C(C)C)cc1C(N)=O | 100
CC(=O)N(C#N)c1sc2c(c1C(N)=O)CCCC2 | 100
Cc1csc(NC(=O)c2cc(-n3cccc3)ccc2O)c1C(N)=O | 100
CC(=O)Nc1ccccc1C(=O)Nc1sc(C(C)c2ccccc2)cc1C(N)=O (stereo unspecified) | 100
NC(=O)c1cc(Cc2ccccc2)sc1NC(=O)c1ccc2[nH]cnc2c1 | 100
C/C(=C/c1ccccc1)C(=O)Nc1sc(-c2ccccc2)cc1C(N)=O | 100
Cc1ccc(C(=O)Nc2sc(C(C)C)cc2C(N)=O)c(C)c1 | 100
CC(C)c1cc(C(N)=O)c(NC(=O)Cc2cccs2)s1 | 100
NC(=O)c1cc(Cc2ccccc2)sc1NC(=O)/C(F)=C/c1ccccc1 | 100
COc1cccc(OC)c1C(=O)Nc1sc(C)c(C)c1C(N)=O | 100
CN(C)CCCC(=O)Nc1sc(Cc2ccccc2)cc1C(N)=O | 100
CC(=O)c1ccccc1C(=O)Nc1sc(-c2ccccc2)cc1C(N)=O | 100
NC(=O)c1cc(-c2ccccc2)sc1NC(=O)Cc1ccc(F)cc1 | 100
Cc1noc(C)c1C(=O)Nc1sc(C(C)C)cc1C(N)=O | 100
Cc1cccc(CC(=O)Nc2sc(C(C)C)cc2C(N)=O)c1 | 100
CC(=O)NC(=O)C(Nc1sc(-c2ccccc2)cc1C(N)=O)C(C)C (stereo unspecified) | 100
NC(=O)c1cc(Cc2ccccc2)sc1NC(=O)c1ccc2c(c1)C=NC2 | 100
CC(c1ccccc1)c1cc(C(N)=O)c(NC(=O)c2ccc3ccccc3n2)s1 (stereo unspecified) | 100
NC(=O)c1cc(Cc2ccccc2)sc1NC(=O)CCN1C(=O)C=CC1=O | 100
NC(=O)c1cc(Cc2ccccc2)sc1NC(=O)COCc1ccccc1 | 100

Now from value to molecule:

inhibition [%] | Compound
100 | CN1CCc2c(sc(NC(=O)c3cc4c(Cl)cc(Cl)cc4[nH]3)c2C(N)=O)C1
100 | Cc1sc(NC(=O)c2c(Cl)cccc2Cl)c(C(N)=O)c1C
100 | CN1CCc2c(sc(NC(=O)c3cccc(I)c3)c2C(N)=O)C1
100 | Cc1csc(NC(=O)C(C)NC(=O)c2ccccc2)c1C(N)=O (stereo unspecified)
100 | CN1CCc2c(sc(NC(=O)c3cc(O)c4cc(Cl)ccc4n3)c2C(N)=O)C1
100 | CC(C)c1cc(C(N)=O)c(NC(=O)/C=C/c2cccnc2)s1
100 | Cc1sc(NC(=O)/C=C/CNC2=CCC(=O)C=C2)c(C(N)=O)c1C
100 | Cc1csc(NC(=O)c2ccc(S(N)(=O)=O)cc2)c1C(N)=O
100 | Cc1csc(NC(=O)CNC(=O)c2ccccc2O)c1C(N)=O
100 | NC(=O)c1c(NC(=O)c2cccc(O)c2)sc2c1CCCC2
100 | COc1ccccc1/C=C\C(=O)Nc1sc(C(C)c2ccccc2)cc1C(N)=O (stereo unspecified)
100 | CC(=O)NC(Cc1c[nH]cn1)C(=O)Nc1sc2c(c1C(N)=O)CCN(C)C2 (stereo unspecified)
100 | CN1CCc2c(sc(NC(=O)c3ccc(-c4ccc(Cl)cc4)o3)c2C(N)=O)C1
100 | NC(=O)c1c(NC(=O)c2cc[nH]c2)sc2c1CCCC2
100 | CC(c1ccccc1)c1cc(C(N)=O)c(NC(=O)c2ccc(O)c(Cl)c2)s1 (stereo unspecified)
100 | COc1ccc2c(c1)C(CC(=O)Nc1sc3c(c1C(N)=O)CCN(C)C3)C(=O)C2 (stereo unspecified)
100 | COc1cccc(/C=C\C(=O)Nc2scc(C)c2C(N)=O)c1OC
100 | CN1CCc2c(sc(NC(=O)/C=C\C(=O)Nc3ccc(Cl)cc3)c2C(N)=O)C1

inhibition [%] | Compound
100 | Cc1ccc(S(=O)(=O)NCC(=O)Nc2sc3c(c2C(N)=O)CCN(C)C3)cc1
100 | COc1ccc(/C=C\C(=O)Nc2sc(C(C)c3ccccc3)cc2C(N)=O)cc1 (stereo unspecified)
100 | Cc1csc(NC(=O)CCNC(=O)c2ccccc2)c1C(N)=O
100 | CC(C)=CC(=O)Nc1sc2c(c1C(N)=O)CCCC2
100 | CN1CCc2c(sc(NC(=O)/C=C\C(=O)Nc3cccc4ccccc34)c2C(N)=O)C1
100 | NC(=O)c1c(NC(=O)c2cnccn2)sc2c1CCCC2
100 | NC(=O)c1c(NC(=O)c2ccccc2)sc2c1CCCC2
100 | NC(=O)c1c(NC(=O)c2cccnc2)sc2c1CCCC2
100 | NC(=O)c1cc(Cc2ccccc2)sc1NC(=O)/C=C\c1ccc(O)cc1
100 | CC(=O)Nc1ccc(Br)cc1C(=O)Nc1sc2c(c1C(N)=O)CCN(C)C2
100 | COc1ccc(Cl)cc1C(=O)Nc1sc(C)c(C)c1C(N)=O
100 | Cc1cccc(NC(=O)c2ccccc2C(=O)Nc2sc3c(c2C(N)=O)CCN(C)C3)c1
100 | Cc1ccc(C(=O)Nc2sc3c(c2C(N)=O)CCCC3)cc1
100 | NC(=O)c1cc(Cc2ccccc2)sc1NC(=O)/C=C/c1ccccc1O
100 | NC(=O)c1c(NC(=O)C2(C(N)=O)CC2)sc2c1CCCC2
100 | COc1ccc(OC)c(/C=C\C(=O)Nc2scc(C)c2C(N)=O)c1
100 | COc1cc(OC)c(C(=O)Nc2sc3c(c2C(N)=O)CCN(C)C3)c(OC)c1
100 | CN1CCc2c(sc(NC(=O)CCS(=O)(=O)c3ccccc3)c2C(N)=O)C1
